The text below walks through data of patent publication US7638538B1, “Pharmaceutically active sulfonyl amino acid derivatives” (Laboratoires Serono S.A., priority 1999, dated 2009).

Holding throughout (type): biochemical
One assay deals with GST-JNK2 (Homo sapiens, UniProt P45984). Kind of assay: JNK2 in vitro kinase assay (SPA, GST-c-Jun substrate). As to the method:
(§1) JNK 2 and 3 in vitro assays: JNK 2 and/or 3 assays are performed 96 well MTT plates, by incubation of 0.5 μg of recombinant, pre-activated GST-JNK2 with 1 μg of recombinant, biotinylated GST-c-Jun and 2 μM ^33γ-ATP (2 nCi/μl), in the presence or absence of sulfonyl amino acid inhibitors and in a reaction volume of 150 μl containing 50 mM Tris-HCl, pH 8.0; 10 mM MgCl2; 1 mM Dithiothreitol, and 100 μM NaVO4. The incubation is carried for 120 min. at R.T and stopped up by addition of 200 μl of a solution containing 250 μg of Streptavidine-coated SPA beads (Amersham, Inc.)*, 5 mM EDTA, 0.1% Trinton X-100 and 50 μM ATP, in phosphate saline buffer. After incubation for 60 minutes at RT, beads are sedimented by centrifugation at 1500×g for 5 minutes, resuspended in 200 μl of PBS containing 5 mM EDTA, 0.1% Triton X-100 and 50 μM ATP and the radioactivity measured in a scintillation β counter, following sedimentation of the beads as described above. By substituting GST-c-Jun for biotinylated GST-1ATF2 or myelin basic protein, this assay can be used to measure inhibition of preactivated p38 and ERK MAP Kinases, respectively.

The target of a further assay is p38 (Homo sapiens, UniProt Q16539). Description: p38 in vitro kinase assay (SPA, GST-ATF2 substrate). As to the method:
as §1

Another assay addresses JNK3 (Homo sapiens, UniProt P53779). Kind of assay: JNK3 in vitro kinase assay (SPA, GST-c-Jun substrate). As to the method: as §1
The target of a further assay is ERK2 (Homo sapiens, UniProt P28482). Kind of assay: ERK2 in vitro kinase assay (SPA, myelin basic protein substrate). As to the method:
as §1

Structures are written as SMILES.

p38, sequence (Q16539 whole entry): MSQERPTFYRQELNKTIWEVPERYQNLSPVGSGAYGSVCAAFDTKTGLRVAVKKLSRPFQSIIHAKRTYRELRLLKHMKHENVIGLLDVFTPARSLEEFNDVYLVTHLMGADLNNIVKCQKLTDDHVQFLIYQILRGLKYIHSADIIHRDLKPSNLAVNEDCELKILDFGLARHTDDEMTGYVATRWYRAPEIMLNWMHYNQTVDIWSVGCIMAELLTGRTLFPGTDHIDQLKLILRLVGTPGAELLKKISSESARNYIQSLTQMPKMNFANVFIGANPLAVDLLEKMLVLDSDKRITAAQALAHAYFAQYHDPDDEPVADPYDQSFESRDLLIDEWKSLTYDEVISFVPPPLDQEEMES
JNK3, sequence (P53779 whole entry, species assumed): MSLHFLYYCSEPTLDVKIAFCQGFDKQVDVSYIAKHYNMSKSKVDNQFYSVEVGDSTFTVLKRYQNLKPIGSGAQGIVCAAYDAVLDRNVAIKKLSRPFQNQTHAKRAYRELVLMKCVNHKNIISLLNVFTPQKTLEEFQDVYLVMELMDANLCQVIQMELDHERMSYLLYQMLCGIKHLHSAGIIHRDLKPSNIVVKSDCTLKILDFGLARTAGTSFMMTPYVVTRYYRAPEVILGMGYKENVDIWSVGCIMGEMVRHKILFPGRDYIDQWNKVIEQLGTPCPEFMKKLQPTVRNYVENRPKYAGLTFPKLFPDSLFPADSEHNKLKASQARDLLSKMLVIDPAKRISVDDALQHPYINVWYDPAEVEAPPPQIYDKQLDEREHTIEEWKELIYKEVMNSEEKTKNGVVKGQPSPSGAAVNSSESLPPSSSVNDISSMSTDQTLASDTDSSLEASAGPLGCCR
GST-JNK2, sequence (P45984 whole entry): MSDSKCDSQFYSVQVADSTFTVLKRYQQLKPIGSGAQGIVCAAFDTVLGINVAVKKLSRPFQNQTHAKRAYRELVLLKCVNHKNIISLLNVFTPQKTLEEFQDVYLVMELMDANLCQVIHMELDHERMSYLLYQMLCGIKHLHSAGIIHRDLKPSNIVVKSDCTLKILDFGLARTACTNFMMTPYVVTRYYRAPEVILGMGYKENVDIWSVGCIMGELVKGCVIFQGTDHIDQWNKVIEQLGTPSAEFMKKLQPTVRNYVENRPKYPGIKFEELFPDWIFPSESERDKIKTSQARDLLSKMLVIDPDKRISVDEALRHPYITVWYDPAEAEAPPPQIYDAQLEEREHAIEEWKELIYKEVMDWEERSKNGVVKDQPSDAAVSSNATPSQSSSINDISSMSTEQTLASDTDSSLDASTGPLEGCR
ERK2, sequence (P28482 whole entry, species assumed): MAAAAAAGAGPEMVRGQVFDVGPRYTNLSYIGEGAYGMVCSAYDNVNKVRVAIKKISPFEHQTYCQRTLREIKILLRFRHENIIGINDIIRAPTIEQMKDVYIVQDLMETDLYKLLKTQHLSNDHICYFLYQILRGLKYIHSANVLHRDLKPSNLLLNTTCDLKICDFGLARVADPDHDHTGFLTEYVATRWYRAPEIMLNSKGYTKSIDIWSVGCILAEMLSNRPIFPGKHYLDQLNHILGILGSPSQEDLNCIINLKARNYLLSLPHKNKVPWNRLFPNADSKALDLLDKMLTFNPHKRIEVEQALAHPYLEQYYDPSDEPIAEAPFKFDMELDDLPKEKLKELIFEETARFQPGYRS

For `O=C(CNS(=O)(=O)c1ccc(CNC(=O)c2ccc(Cl)cc2)s1)NCCNc1ncc(C(F)(F)F)cc1Cl` [Example 1, 4chloro-N-({5-[({2-[(2-{[3-chloro-5-(trifluoromethyl)pyridin-2-yl]amino}ethyl)amino]-2-oxoethyl}amino)sulfonyl]thien-2-yl}methyl)benzamide], the 50% inhibitory concentration (IC50) (usually the concentration that gives 50% inhibition) was 2700 nM against GST-JNK2, over 30000 nM at p38, 1200 nM at JNK3 and over 30000 nM against ERK2.

As to `O=C(CNS(=O)(=O)c1ccc(CNC(=O)c2ccc(Cl)cc2)s1)Nc1cccc(S(=O)(=O)C(F)(F)F)c1` [Example 6, 4-chloro-N-[(5-{[(2-oxo-2-{3-[(trifluoromethyl)sulfonyl]anilino)ethyl)amino]sulfonyl}thien-2-yl)methyl]benzamide], the IC50 against GST-JNK2 is 1300 nM; on p38, over 30000 nM; on JNK3, 640 nM; on ERK2, over 30000 nM.
